From patent US8815260B1, “Treatment of restenosis and stenosis with dasatinib” (University of South Florida, priority 2005, dated 2014)
Read-outs that look alike come from different tables or passages of the source. Each block holds one molecule with its values, some of them ahead of it.

Legend:
STAT3, Akt, Erk2 [1] = experiment: PDGF-stimulated activation of STAT3, Akt and Erk2 in A10 cells (immunoblotting); format: cell-based, rat
PDGFRβ = PDGFRβ (Rattus norvegicus, UniProt Q05030); conditions: A10 cells
PDGFRβ, sequence (Q05030 32-1097): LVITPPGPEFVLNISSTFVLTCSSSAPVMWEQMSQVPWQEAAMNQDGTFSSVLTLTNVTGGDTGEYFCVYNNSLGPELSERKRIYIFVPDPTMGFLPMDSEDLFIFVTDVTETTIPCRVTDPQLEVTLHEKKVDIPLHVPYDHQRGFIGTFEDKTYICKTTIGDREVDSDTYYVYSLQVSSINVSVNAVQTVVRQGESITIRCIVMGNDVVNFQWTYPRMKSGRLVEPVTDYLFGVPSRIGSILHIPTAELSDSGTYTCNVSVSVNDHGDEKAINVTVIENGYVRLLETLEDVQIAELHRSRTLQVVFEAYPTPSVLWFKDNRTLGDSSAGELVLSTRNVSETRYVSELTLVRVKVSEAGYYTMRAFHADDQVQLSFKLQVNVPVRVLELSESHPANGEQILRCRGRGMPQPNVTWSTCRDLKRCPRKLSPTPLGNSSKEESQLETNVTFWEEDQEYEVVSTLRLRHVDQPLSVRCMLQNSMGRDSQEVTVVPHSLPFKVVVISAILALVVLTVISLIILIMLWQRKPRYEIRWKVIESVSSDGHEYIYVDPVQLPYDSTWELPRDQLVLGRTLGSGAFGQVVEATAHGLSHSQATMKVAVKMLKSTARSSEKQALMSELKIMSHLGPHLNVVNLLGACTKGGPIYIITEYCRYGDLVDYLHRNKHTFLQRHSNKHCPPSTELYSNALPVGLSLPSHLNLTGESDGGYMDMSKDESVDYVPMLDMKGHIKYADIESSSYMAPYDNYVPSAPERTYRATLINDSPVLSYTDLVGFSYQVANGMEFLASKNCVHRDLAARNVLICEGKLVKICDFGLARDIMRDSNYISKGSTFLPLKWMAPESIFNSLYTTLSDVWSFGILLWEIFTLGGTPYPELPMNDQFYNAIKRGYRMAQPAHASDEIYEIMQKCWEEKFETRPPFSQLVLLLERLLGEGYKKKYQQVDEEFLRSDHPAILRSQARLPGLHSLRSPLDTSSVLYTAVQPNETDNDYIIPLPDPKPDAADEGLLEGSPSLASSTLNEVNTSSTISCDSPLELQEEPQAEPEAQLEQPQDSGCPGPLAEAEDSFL

PDGFR = conditions: Buchdunger et al., 1996; Sanz-Gonzalez et al., 2004; cited from earlier work
porcine SMC = conditions: Banai et al., 1998; cited from earlier work
[2] = cited from earlier work
A10 cells = experiment: Flow cytometric analysis of cell cycle phase distribution, PDGF-treated A10 cells; format: cell-based, rat; conditions: PDGF 10 ng/ml plus 50 nM
IGF-1R = IGF-1R (Rattus norvegicus, UniProt P24062); conditions: A10 cells, up to 50 nM, IGF-1 10 ng/ml 10 min
IGF-1R, sequence (P24062 31-1370): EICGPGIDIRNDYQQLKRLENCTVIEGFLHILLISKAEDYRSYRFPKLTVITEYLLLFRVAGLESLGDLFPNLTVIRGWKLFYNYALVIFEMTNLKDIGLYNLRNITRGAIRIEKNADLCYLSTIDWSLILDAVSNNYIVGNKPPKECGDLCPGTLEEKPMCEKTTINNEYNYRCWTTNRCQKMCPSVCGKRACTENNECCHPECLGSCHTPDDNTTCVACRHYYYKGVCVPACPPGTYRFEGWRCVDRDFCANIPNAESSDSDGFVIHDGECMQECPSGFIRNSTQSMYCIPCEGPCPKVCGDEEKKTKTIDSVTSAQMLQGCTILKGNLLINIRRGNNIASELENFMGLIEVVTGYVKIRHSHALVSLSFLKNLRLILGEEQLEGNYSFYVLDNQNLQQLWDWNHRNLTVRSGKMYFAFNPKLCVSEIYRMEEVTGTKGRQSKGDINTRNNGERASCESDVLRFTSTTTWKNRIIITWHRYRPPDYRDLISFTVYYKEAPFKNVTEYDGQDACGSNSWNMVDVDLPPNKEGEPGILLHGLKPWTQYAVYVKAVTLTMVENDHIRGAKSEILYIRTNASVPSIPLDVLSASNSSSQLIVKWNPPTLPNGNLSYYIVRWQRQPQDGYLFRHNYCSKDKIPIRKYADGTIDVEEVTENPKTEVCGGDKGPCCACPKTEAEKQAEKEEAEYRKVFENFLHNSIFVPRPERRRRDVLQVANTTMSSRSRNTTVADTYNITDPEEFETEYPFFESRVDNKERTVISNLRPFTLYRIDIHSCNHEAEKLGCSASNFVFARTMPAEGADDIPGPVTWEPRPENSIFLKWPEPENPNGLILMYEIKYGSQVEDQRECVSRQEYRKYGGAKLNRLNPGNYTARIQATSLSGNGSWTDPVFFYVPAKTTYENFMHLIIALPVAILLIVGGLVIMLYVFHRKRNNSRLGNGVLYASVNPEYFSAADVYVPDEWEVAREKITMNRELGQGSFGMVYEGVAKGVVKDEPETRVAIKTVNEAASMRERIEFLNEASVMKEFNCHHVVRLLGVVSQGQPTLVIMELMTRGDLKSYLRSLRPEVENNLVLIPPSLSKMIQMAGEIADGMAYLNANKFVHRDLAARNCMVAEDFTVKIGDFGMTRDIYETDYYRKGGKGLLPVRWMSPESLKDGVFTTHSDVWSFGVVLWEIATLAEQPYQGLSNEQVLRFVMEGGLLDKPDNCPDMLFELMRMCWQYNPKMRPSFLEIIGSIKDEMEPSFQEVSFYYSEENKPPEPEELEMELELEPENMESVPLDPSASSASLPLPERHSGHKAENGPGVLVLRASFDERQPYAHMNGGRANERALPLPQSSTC

STAT3, Akt, Erk2 [3] = experiment: PDGF-stimulated activation of STAT3, Akt and Erk2 in primary human AoSMCs; format: cell-based; conditions: 0-50 nM, not reduced below basal activation state

- concentration required for the same level (complete block) of PDGFR inhibition (PDGFRβ; parallel experiments, PDGF-BB 5 ng/ml 5 min): 5 µM
SMILES: Cc1ccc(NC(=O)c2ccc(CN3CCN(C)CC3)cc2)cc1Nc1nccc(-c2cccnc2)n1 [imatinib]
- concentration giving complete inhibition of PDGF-stimulated Akt and Erk2 activation (STAT3, Akt, Erk2 [1]; PDGF-BB 5 ng/ml 5 min): 5 µM
- decrease in STAT3 tyrosine phosphorylation (STAT3, Akt, Erk2 [1]; PDGF-BB 5 ng/ml 5 min, relative to the 5 μM needed for Akt and Erk2): appeared at lower concentrations
- concentrations required for inhibition of PDGFR in cell-based assays (PDGFR): micromolar concentrations

SMILES: Cc1cc2ncc(-c3ccccc3)nc2cc1C [AG-1295]
- inhibition of porcine SMC proliferation, nature of the effect (porcine SMC): reversible and not toxic

- PDGF-stimulated PDGFRβ tyrosine phosphorylation (PDGFRβ; 50 nM, PDGF-BB 5 ng/ml, all time points (0-30 min)): effectively blocked
- inhibition of IGF-1R tyrosine phosphorylation (IGF-1R): No detectable inhibition
SMILES: Cc1nc(Nc2ncc(C(=O)Nc3c(C)cccc3Cl)s2)cc(N2CCN(CCO)CC2)n1 [BMS-354825, N-(2-chloro-6-methylphenyl)-2-[[6-[4-[(2-hydroxyethyl)-1-piperazinyl]-2-methyl-4-pyrimidinyl]amino]-5-thiazolecarboxamide, monohydrate]
- PDGF-stimulated activation of STAT3, Akt and Erk2 (activation-specific phosphorylation) (STAT3, Akt, Erk2 [1]; 50 nM, PDGF-BB 5 ng/ml): inhibited
- Cmax ([2]; BMS-354825 dosing for CML, oral, read-out: Cmax): 60 to 120 nM
- Cmax ([2]; oral delivery route, 140 mg/day): 30 to 60 ng/mL
- percentage of cells in G2 phase (A10 cells; 16 h (PDGF alone 10.74%, no PDGF 0.99%)): 3.75%
- percentage of cells in S phase (A10 cells; 16 h (PDGF alone 23.83%, no PDGF 10.4%)): 7.99%
- percentage of cells in G1 phase (A10 cells; 16 h (PDGF alone 65.44%, no PDGF 88.65%)): 88.29%
- PDGF-induced further activation of STAT3 (STAT3, Akt, Erk2 [3]): blocked
